# Numbered stars: 1 amine (or outer) side, 2 acyl side, 3 side chain; on linkers, the order of the positions; unused ones are H or OH. Bridge positions count the residues as written; N and C are the ends. Square brackets hold non-standard residues; d marks the D form. Side chains are listed from the residue outwards. Peptide text beside a SMILES is read from it. * marks the point of attachment. X3 = O=C(O)CN1CCN(CC(=O)O)CCN(CC(=O)NCCCOCCOCCOCCCN*)CCN(CC(=O)O)CC1; DOTA = O=C(O)CN1CCN(CC(=O)O)CCN(CC(=O)*)CCN(CC(=O)O)CC1; Phe(4-CF3) = N[C@@H](Cc1ccc(C(F)(F)F)cc1)C(=O)O; Phe(4-Cl) = N[C@@H](Cc1ccc(Cl)cc1)C(=O)O; Arg(Me) = CNC(=N)NCCC[C@H](N)C(=O)O; X4 = O=C(CN1CCC(N[*:1])CC1)[*:2]; X1 = O=C(CC1CCN([*:1])CC1)[*:2]; Lys(Me) = CNCCCC[C@H](N)C(=O)O; NMeK = CN[C@@H](CCCCN)C(=O)O; Suc = O=C(CCC(=O)[*:2])[*:1]; Tle = CC(C)(C)[C@H](N)C(=O)O; Nle = CCCC[C@H](N)C(=O)O; Dap = NC[C@H](N)C(=O)O; Aib = CC(C)(N)C(=O)O; CO = O=C([*:1])[*:2]; Guanidino = N=C(N)N*; βAla = NCCC(=O)O
# Assays:
# [1] = molecular target: T1, PSMA-expressing C4-2 cells (Homo sapiens, UniProt Q04609); assay: FACS binding assay (competition with 50 nM PSM-0183); settings: pIC50 category of FACS binding, C4-2 cells; read-out: pIC50 [C4-2] CAT (converted)
# T1 construct: PSMA-expressing C4-2 cells (ATCC, Cat. No. CRL-3314) were cultured in RPMI-1640; host or cells: C4-2 cells
# Outline: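 Competition format: fluorescent tracer PSM-0183 (50 nM) displaced from PSMA on C4-2 cells by a test compound titration over 1 h at 4 °C. Bound tracer was quantified as flow-cytometric AF488 median fluorescence after washing. Four-parameter logistic fits of MFI data gave IC50 and pIC50.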
# [2] = molecular target: T2, Fc-fusion protein of human PSMA (hPSMA-Fc) (Homo sapiens, UniProt Q04609); assay: Surface plasmon resonance assay (Biacore T200, single cycle kinetic); format: binding; settings: pKD category for PSMA SPR activity assay, hPSMA-Fc, 25° C.; read-out: pKD CAT (converted)
# T2 construct: purchased Acro Biosystems PSA-H5264
# Outline: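 KD, expressed as pKD, came from 1:1 Langmuir fits of reference- and buffer-blank-subtracted SPR data. The runs were single-cycle kinetics at 25° C in HBST/0.1% DMSO over human PSMA-Fc, captured to ~1000 RU on a peptide-coated CM5 surface and regenerated with 10 mM glycine pH 1.5.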
# T1 sequence (Q04609 whole entry): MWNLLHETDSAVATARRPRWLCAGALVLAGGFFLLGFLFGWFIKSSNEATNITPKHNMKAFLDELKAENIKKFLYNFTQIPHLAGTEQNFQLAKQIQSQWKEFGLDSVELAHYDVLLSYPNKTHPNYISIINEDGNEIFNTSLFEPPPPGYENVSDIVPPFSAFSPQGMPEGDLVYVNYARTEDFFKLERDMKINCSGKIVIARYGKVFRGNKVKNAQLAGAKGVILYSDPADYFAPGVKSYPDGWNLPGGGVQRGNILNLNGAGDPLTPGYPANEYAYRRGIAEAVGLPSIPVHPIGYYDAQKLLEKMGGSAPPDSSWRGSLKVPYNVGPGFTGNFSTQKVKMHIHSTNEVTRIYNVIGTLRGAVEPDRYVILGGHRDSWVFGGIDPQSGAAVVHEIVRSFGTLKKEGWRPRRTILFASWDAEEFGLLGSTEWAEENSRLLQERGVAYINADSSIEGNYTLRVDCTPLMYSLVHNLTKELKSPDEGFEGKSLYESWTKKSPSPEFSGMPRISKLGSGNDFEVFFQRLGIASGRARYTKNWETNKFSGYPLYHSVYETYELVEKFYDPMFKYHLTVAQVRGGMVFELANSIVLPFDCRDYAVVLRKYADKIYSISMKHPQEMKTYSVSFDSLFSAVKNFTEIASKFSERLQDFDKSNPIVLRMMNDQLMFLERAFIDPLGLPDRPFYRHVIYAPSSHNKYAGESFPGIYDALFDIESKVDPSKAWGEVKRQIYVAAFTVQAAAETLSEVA
# T2 sequence (Q04609 44-750 limits assumed): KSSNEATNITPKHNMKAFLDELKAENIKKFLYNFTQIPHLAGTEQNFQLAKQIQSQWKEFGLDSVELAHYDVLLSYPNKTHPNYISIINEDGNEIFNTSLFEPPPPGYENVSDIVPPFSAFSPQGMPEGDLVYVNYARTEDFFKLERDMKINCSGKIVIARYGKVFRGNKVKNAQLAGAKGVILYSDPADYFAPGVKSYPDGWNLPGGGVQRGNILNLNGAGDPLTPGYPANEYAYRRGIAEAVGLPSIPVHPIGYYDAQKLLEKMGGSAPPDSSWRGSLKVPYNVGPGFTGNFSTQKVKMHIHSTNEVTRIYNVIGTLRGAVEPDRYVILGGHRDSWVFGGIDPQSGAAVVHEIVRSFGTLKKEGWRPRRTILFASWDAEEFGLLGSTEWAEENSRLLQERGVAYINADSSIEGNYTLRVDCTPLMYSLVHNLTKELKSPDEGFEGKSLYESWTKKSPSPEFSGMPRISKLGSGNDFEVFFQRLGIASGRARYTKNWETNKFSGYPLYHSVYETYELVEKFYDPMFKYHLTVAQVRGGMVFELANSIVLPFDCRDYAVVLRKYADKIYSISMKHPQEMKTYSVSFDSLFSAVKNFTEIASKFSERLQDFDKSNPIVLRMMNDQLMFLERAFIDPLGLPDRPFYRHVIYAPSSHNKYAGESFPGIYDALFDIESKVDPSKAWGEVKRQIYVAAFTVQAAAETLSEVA
IC50 [1],Kd [2],SMILES
200 to 1260 nM,< 12.6 nM,"CC(=O)N[C@H](C(=O)NC(C)(C)C(=O)N[C@@H](Cc1ccccc1)C(=O)N[C@H]1CSSC[C@@H](C(=O)N[C@H](C(=O)N[C@H](C(=O)N[C@@H](CC(=O)O)C(N)=O)[C@@H](C)O)C(C)(C)C)NC(=O)[C@H](CC(N)=O)NC(=O)[C@H](C)NC(=O)[C@H](CCCNC(=N)N)NC(=O)[C@@H](CCCCN)NC1=O)[C@@H](C)O [PSM-0535, Ac-Thr-Aib-Phe-[Cys-lys-Arg-Ala-Asn-Cys]-Tle-Thr-Asp-NH2] (Ac-T[Aib]FC[dK]RANC[Tle]TD-NH2; disulfide 4-9)"
< 200 nM,12.6 to 126 nM,"C[C@@H](O)[C@H](NC(=O)CN1CCN(CC(=O)O)CCN(CC(=O)O)CCN(CC(=O)O)CC1)C(=O)NC(C)(C)C(=O)N[C@@H](Cc1ccccc1)C(=O)N[C@H]1CSSC[C@@H](C(=O)N[C@H](C(=O)NCCC(N)=O)C(C)(C)C)NC(=O)[C@H](CC(N)=O)NC(=O)C(C)(C)NC(=O)[C@H](CCCNC(=N)N)NC(=O)[C@H](CCCCN)NC1=O [PSM-0539, DOTA-Thr-Aib-Phe-[Cys-Lys-Arg-Aib-Asn-Cys]-Tle-Bal-NH2] ({DOTA}-T[Aib]FCKR[Aib]NC[Tle][βAla]-NH2; disulfide 4-9)"
< 200 nM,< 12.6 nM,"CC(=O)N[C@H](C(=O)NC(C)(C)C(=O)N[C@@H](Cc1ccccc1)C(=O)N[C@H]1CSSC[C@@H](C(=O)N[C@H](C(=O)N[C@H](C(=O)N[C@@H](CC(=O)O)C(N)=O)[C@@H](C)O)C(C)(C)C)NC(=O)[C@H](CC(N)=O)NC(=O)[C@H](CCCCNC(=O)CCC(=O)NCCCOCCOCCOCCCNC(=O)CN2CCN(CC(=O)O)CCN(CC(=O)O)CCN(CC(=O)O)CC2)NC(=O)[C@H](CCCNC(=N)N)NC(=O)[C@H](CCCCN)NC1=O)[C@@H](C)O [PSM-0542, Ac-Thr-Aib-Phe-[Cys-Lys-Arg-Lys(DOTA-Ttds)-Asn-Cys]-Tle-Thr-Asp-NH2] (Ac-T[Aib]FCKRK([Suc-X3])NC[Tle]TD-NH2; disulfide 4-9)"
< 200 nM,< 12.6 nM,"C[C@@H](O)[C@H](NC(=O)[C@@H](NC(=O)[C@@H]1CSSC[C@H](NC(=O)[C@H](Cc2ccccc2)NC(=O)C(C)(C)NC(=O)[C@@H](NC(=O)CN2CCC(NC(=O)CN3CCN(CC(=O)O)CCN(CC(=O)O)CCN(CC(=O)O)CC3)CC2)[C@@H](C)O)C(=O)N[C@@H](CCCCN)C(=O)N[C@@H](CCCNC(=N)N)C(=O)NC(C)(C)C(=O)N[C@@H](CC(N)=O)C(=O)N1)C(C)(C)C)C(N)=O [PSM-0543, DOTA-APAc-Thr-Aib-Phe-[Cys-Lys-Arg-Aib-Asn-Cys]-Tle-Thr-NH2] ({DOTA}-[X4]T[Aib]FCKR[Aib]NC[Tle]T-NH2; disulfide 5-10)"
< 200 nM,< 12.6 nM,"C[C@@H](O)[C@H](NC(=O)[C@@H](NC(=O)[C@@H]1CSSC[C@H](NC(=O)[C@H](Cc2ccc(Cl)cc2)NC(=O)C(C)(C)NC(=O)[C@@H](NC(=O)CC2CCN(C(=O)CN3CCN(CC(=O)O)CCN(CC(=O)O)CCN(CC(=O)O)CC3)CC2)[C@@H](C)O)C(=O)N[C@@H](CCCCN)C(=O)N[C@@H](CNC(=O)NC(=N)N)C(=O)NC(C)(C)C(=O)N[C@@H](CC(N)=O)C(=O)N1)C(C)(C)C)C(N)=O [PSM-0546, DOTA-Cmp-Thr-Aib-Pcf-[Cys-Lys-Urr-Aib-Asn-Cys]-Tle-Thr-NH2] ({DOTA}-[X1]T[Aib][Phe(4-Cl)]CK[Dap]([CO-Guanidino])[Aib]NC[Tle]T-NH2; disulfide 5-10)"
200 to 1260 nM,12.6 to 126 nM,"C[C@@H](O)[C@H](NC(=O)[C@@H](NC(=O)[C@@H]1CSSC[C@H](NC(=O)[C@H](Cc2ccc(Cl)cc2)NC(=O)C(C)(C)NC(=O)[C@@H](NC(=O)CC2CCN(C(=O)CN3CCN(CC(=O)O)CCN(CC(=O)O)CCN(CC(=O)O)CC3)CC2)[C@@H](C)O)C(=O)N(C)[C@@H](CCCCN)C(=O)N[C@@H](CCCNC(=N)N)C(=O)NC(C)(C)C(=O)N[C@@H](CC(N)=O)C(=O)N1)C(C)(C)C)C(N)=O [PSM-0548, DOTA-Cmp-Thr-Aib-Pcf-[Cys-Nmk-Arg-Aib-Asn-Cys]-Tle-Thr-NH2] ({DOTA}-[X1]T[Aib][Phe(4-Cl)]C[NMeK]R[Aib]NC[Tle]T-NH2; disulfide 5-10)"

# Continued, compound first:
SMILES,IC50 [1],Kd [2]
"CCCC[C@H](NC(=O)[C@@H]1CSSC[C@H](NC(=O)[C@H](Cc2ccccc2)NC(=O)[C@@H](C)NC(=O)[C@@H](NC(C)=O)[C@@H](C)O)C(=O)N[C@@H](CCCCN)C(=O)N[C@@H](CCCNC(=N)N)C(=O)N[C@@H](C)C(=O)N[C@@H](CC(N)=O)C(=O)N1)C(=O)N[C@H](C(=O)N[C@@H](CC(=O)O)C(N)=O)[C@@H](C)O [PSM-0537, Ac-Thr-ala-Phe-[Cys-Lys-Arg-Ala-Asn-Cys]-Nlc-Thr-Asp-NH2]",1260 to 3160 nM,> 501 nM
"CNCCCC[C@@H]1NC(=O)[C@@H](NC(=O)[C@H](Cc2ccc(Cl)cc2)NC(=O)C(C)(C)NC(=O)[C@@H](NC(=O)CC2CCN(C(=O)CN3CCN(CC(=O)O)CCN(CC(=O)O)CCN(CC(=O)O)CC3)CC2)C(C)(C)C)CSSC[C@@H](C(=O)N[C@H](C(=O)N[C@H](C(N)=O)[C@@H](C)O)C(C)(C)C)NC(=O)[C@H](CC(N)=O)NC(=O)C(C)(C)NC(=O)[C@H](CCCNC(=N)NC)NC1=O [PSM-0538, DOTA-Cmp-Tle-Aib-Pcf-[Cys-Lys (Mc)-Arg (Mc)-Aib-Asn-Cys]-Tle-Thr-NH2] ({DOTA}-[X1][Tle][Aib][Phe(4-Cl)]C[Lys(Me)][Arg(Me)][Aib]NC[Tle]T-NH2; disulfide 5-10)",200 to 1260 nM,126 to 501 nM
"CC(=O)N[C@H](C(=O)NC(C)(C)C(=O)N[C@@H](Cc1ccccc1)C(=O)N[C@H]1CSSC[C@@H](C(=O)N[C@H](C(=O)N[C@@H](CCC(N)=O)C(N)=O)C(C)(C)C)NC(=O)[C@H](CC(N)=O)NC(=O)C(C)(C)NC(=O)[C@H](CCCNC(=N)N)NC(=O)[C@H](CCCCN)NC1=O)[C@@H](C)O [PSM-0540, Ac-Thr-Aib-Phe-[Cys-Lys-Arg-Aib-Asn-Cys]-Tle-Gln-NH2] (Ac-T[Aib]FCKR[Aib]NC[Tle]Q-NH2; disulfide 4-9)",< 200 nM,< 12.6 nM
"CC(=O)N[C@H](C(=O)NC(C)(C)C(=O)N[C@@H](Cc1ccccc1)C(=O)N[C@H]1CSSC[C@@H](C(=O)N[C@H](C(=O)N[C@H](C(N)=O)[C@@H](C)O)C(C)(C)C)NC(=O)[C@H](Cc2ccccc2)NC(=O)C(C)(C)NC(=O)[C@H](CCCNC(=N)N)NC(=O)[C@H](CCCCN)NC1=O)[C@@H](C)O [PSM-0541, Ac-Thr-Aib-Phe-[Cys-Lys-Arg-Aib-Phe-Cys]-Tle-NH2] (Ac-T[Aib]FCKR[Aib]FC[Tle]T-NH2; disulfide 4-9)",< 200 nM,< 12.6 nM
"CCCC[C@H](NC(=O)[C@@H]1CSSC[C@H](NC(=O)[C@H](Cc2ccccc2)NC(=O)[C@H](C)NC(=O)[C@@H](NC(C)=O)[C@@H](C)O)C(=O)N2CCC[C@H]2C(=O)N[C@@H](CCCNC(=N)N)C(=O)N[C@@H](C)C(=O)N[C@@H](CC(N)=O)C(=O)N1)C(=O)N[C@H](C(=O)N[C@@H](CC(=O)O)C(N)=O)[C@@H](C)O [PSM-0544, Ac-Thr-Als-Phe-[Cys-Pro-Arg-Ala-Asn-Cys]-Nle-Thr-Asp-NH2] (Ac-TAFCPRANC[Nle]TD-NH2; disulfide 4-9)",> 3160 nM,> 501 nM
"CC(=O)N[C@H](C(=O)NC(C)(C)C(=O)N[C@@H](Cc1ccccc1)C(=O)N[C@H]1CSSC[C@@H](C(=O)N[C@H](C(=O)N[C@H](C(N)=O)[C@@H](C)O)C(C)(C)C)NC(=O)[C@H](CC(C)C)NC(=O)C(C)(C)NC(=O)[C@H](CCCNC(=N)N)NC(=O)[C@H](CCCCN)NC1=O)[C@@H](C)O [PSM-0545, Ac-Thr-Aib-Phe-[Cys-Lys-Arg-Aib-Leu-Cys]-Tle-Thr-NH2] (Ac-T[Aib]FCKR[Aib]LC[Tle]T-NH2; disulfide 4-9)",< 200 nM,< 12.6 nM
"CCCC[C@H](NC(=O)[C@@H]1CSSC[C@H](NC(=O)[C@H](Cc2ccccc2)NC(=O)[C@@H]2CCCN2C(=O)[C@@H](NC(C)=O)[C@@H](C)O)C(=O)N[C@@H](CCCCN)C(=O)N[C@@H](CCCNC(=N)N)C(=O)N[C@@H](C)C(=O)N[C@@H](CC(N)=O)C(=O)N1)C(=O)N[C@H](C(=O)N[C@@H](CC(=O)O)C(N)=O)[C@@H](C)O [PSM-0547, Ac-Thr-Pro-Phe-[Cys-Lys-Arg-Ala-Asn-Cys]-Nle-Thr-Asp-NH2] (Ac-TPFCKRANC[Nle]TD-NH2; disulfide 4-9)",< 200 nM,12.6 to 126 nM
"CNCCCC[C@@H]1NC(=O)[C@@H](NC(=O)[C@H](Cc2ccc(C(F)(F)F)cc2)NC(=O)C(C)(C)NC(=O)[C@@H](NC(=O)CC2CCN(C(=O)CN3CCN(CC(=O)O)CCN(CC(=O)O)CCN(CC(=O)O)CC3)CC2)[C@@H](C)O)CSSC[C@@H](C(=O)N[C@H](C(N)=O)C(C)(C)C)NC(=O)[C@H](CC(N)=O)NC(=O)C(C)(C)NC(=O)[C@H](CCCNC(=N)NC)NC1=O [PSM-0549, DOTA-Cmp-Thr-Aib-Ptf-[Cys-Lys(Me)-Arg(Me)-Aib-Ass-Cys]-Tle-NH2] ({DOTA}-[X1]T[Aib][Phe(4-CF3)]C[Lys(Me)][Arg(Me)][Aib]NC[Tle]-NH2; disulfide 5-10)",< 200 nM,12.6 to 126 nM
"CC(=O)N[C@H](C(=O)NC(C)(C)C(=O)N[C@@H](Cc1ccc(C(F)(F)F)cc1)C(=O)N[C@H]1CSSC[C@@H](C(=O)N[C@H](C(=O)N[C@H](C(N)=O)[C@@H](C)O)C(C)(C)C)NC(=O)[C@H](CC(N)=O)NC(=O)C(C)(C)NC(=O)[C@H](CCCNC(=N)N)NC(=O)[C@H](CCCCN)NC1=O)[C@@H](C)O [PSM-0550, Ac-Thr-Aib-Ptf-[Cys-Lys-Arg-Aib-Asn-Cys]-Tle-Thr-NH2] (Ac-T[Aib][Phe(4-CF3)]CKR[Aib]NC[Tle]T-NH2; disulfide 4-9)",< 200 nM,< 12.6 nM

# Reference: patent US20260083865A1, “PROSTATE SPECIFIC MEMBRANE ANTIGEN (PSMA) LIGANDS AND USE THEREOF” (priority 2022, published 2026)
